Assay results as given in US12161642B2, “Ferrochelatase inhibitors and methods of use” (INDIANA UNIVERSITY RESEARCH AND TECHNOLOGY CORPORATION, priority 2018, dated 2024).
Read-outs that look alike come from different tables or passages of the source.

Assays:
recombinant human FECH = recombinant human FECH (Homo sapiens (Human), UniProt P22830); assay: FECH enzymatic activity assay (Ni2+ mesoporphyrin IX formation, absorbance at 550 nm); assay type: biochemical
Method: The human FECH expression plasmid pHDTF20 was obtained in E. coli cells from the Dailey Lab (University of Georgia). The cells were grown in Circlegrow medium (MP Biomedicals, LLC #3000-122) with ampicillin for 20 hours. Cells were harvested, lysed in a Tris-MOPS buffer and purified by immobilized metal affinity chromatography using HisPur Cobalt resin (Thermo Fisher #89965).
The activity assay buffer was 100 mM Tris-HCl pH 8.0 with 0.05% octyl glucoside detergent. Assay reagents included 100 μM NiCl (Sigma #339350), 0.75 μM FECH enzyme and 100 μM mesoporphyrin (Sigma #258806) prepared in ammonium hydroxide (Santa Cruz #sc-214535).
The kinetic assay was optimized for a 384-well format. For the 384-well assay, each well contained a 50 μL reaction with 40 μL buffer, 5 μL mesoporphyrin solution, 5 μL NiCl and FECH solution. […] This time point was used for the chemical screen.
A mixture of assay buffer, NiCl and FECH enzyme (15 μL) was added to all wells on the assay plate using a MulitFlo dispenser. To start the reaction, 15 μL of a 333 μM mesoporphyrin solution in assay buffer was added to the plate, the plate spun down and the absorbance at OD=550 nm immediately read to establish a read at time 0. Plates were read for absorbance at OD=550 nm again at t=20 minutes and the activity was expressed as the change in the absorbance over the 20 minute reaction.
Compounds, reordered from ChemDiv or synthesized as described above, were made to 10 mM in DMSO and tested in the FECH enzymatic assay at final concentrations of […] 100 μM (1% final DMSO concentration). IC50 values for the compounds were determined using GraphPad Prism software.
A kinetic assay to monitor FECH enzymatic activity was adapted from a published protocol (Burden et a., Biochim Biophys Acta 1435, 191-197 (1999)).

HRECs [1] = assay: HREC proliferation assay (alamarBlue), GI50 determination; assay type: cell-based, human; settings: proliferation of HRECs
Method: Human retinal microvascular endothelial cells (HRECs) were cultured in EGM-2 medium (Lonza). Cells (2500/well) in EGM-2 medium were plated in 48 wells in the center of a 96-well black with clear bottom TC treated plate are allowed to attach overnight. The cells were treated with compounds such that final assay concentrations were 100 μM, 30 μM, 10 μM, 3 μM, 1 μM, 100 nM, and 10 nM with DMSO control (1% final DMSO concentration). Cells were allowed to proliferate for 44 hours prior to addition of alamarBlue. The alamarBlue reagent is a flurorometric/colorimetric redox reagent that is reduced in the presence of growing cells. The assay was completed with a read of fluorescence at excitation of 560 nm and emission of 590 nm. GI50 values were determined using GraphPad Prism software.

HRECs [2] = assay: Matrigel-based tube formation assay; assay type: cell-based, human; settings: 8 hours, total tubule length vs. DMSO control
Method: The Matrigel-based tube formation assay was performed. Briefly, 50 μL Matrigel was allowed to solidify in a 96-well black, clear bottom plate at 37° C. for 20 minutes. HRECs were added to the solid Matrigel at 15,000 cells/well in 100 μL EGM-2 and dosed with appropriate concentrations of compound in DMSO, 1 μL/well. Tube formation was observed every 2 hours by brightfield microscopy and images were taken after 8 hours of tube formation. Six images per treatment were analyzed using the AngiogenesisAnalyzer plugin for ImageJ and HREC total tubule length for treated cells was normalized to DMSO controls. Statistical analysis was completed using GraphPad Prism, with ANOVA followed by Dunnett's post hoc tests used to compare treatments to control (DMSO).

FECH in HRECs = assay: PPIX accumulation assay in HRECs; assay type: cell-based, human; settings: after 5-ALA treatment; vs. DMSO control
Method: To confirm that ferrochelatase is inhibited in HRECs after treatment with compounds, the buildup of FECH's substrate PPIX was assayed fluorometrically. HRECs were plated for 80% confluency at the time of treatment in 6 cm dishes coated with attachment factor. Cells were then treated with compound in DMSO (1% DMSO final concentration) for 2 hours at 37° C. 5-Aminolevulinic acid, the first dedicated precursor in the heme synthesis pathway, was then added to the cells at 1 mM and allowed to incubate at 37° C. for another 2 hours. Cells were washed with PBS and flash frozen. Cells were lysed in 200 μL RIPA buffer and cleared by centrifugation at 14,000 g for 15 minutes at 4° C. The cleared lysates (20 μL) were added to wells of a 384 well plate in triplicate. An equal volume of 2M HC104 prepared in methanol was added to each well and PPIX was detected by immediately reading fluorescence on a Biotek Synergy H1 plate reader at 406 nm excitation and 610 nm emission. Total PPIX accumulation was determined by comparing fluorescence output with PPIX standards, prepared in DMSO and diluted in RIPA buffer and 2M HC104 (1:1 ratio) and read on the same plate. Protein in the cleared lysates was quantified with a standard Bradford assay and the amount of PPIX accumulation is expressed per mg protein.

[3] = recombinant FECH, read-out: FECH IC50

Sequence of recombinant human FECH (P22830 55-423): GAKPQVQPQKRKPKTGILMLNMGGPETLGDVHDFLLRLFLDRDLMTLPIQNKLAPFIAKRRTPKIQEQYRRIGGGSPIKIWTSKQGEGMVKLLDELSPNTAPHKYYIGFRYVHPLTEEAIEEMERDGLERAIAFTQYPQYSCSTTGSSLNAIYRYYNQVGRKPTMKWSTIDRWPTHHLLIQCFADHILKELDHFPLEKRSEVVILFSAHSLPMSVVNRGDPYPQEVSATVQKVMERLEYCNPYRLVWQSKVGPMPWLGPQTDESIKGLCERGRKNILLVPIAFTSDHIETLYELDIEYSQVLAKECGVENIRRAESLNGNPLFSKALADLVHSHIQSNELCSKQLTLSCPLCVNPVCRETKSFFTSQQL

IC50 (recombinant human FECH; [3]) [nM]	Compound	GI50 (HRECs [1]; Homo sapiens, HREC, 44 h) [µM]	tube formation of HRECs (HRECs [2])	further results
178	CC(C)(C)c1ccc(-c2nc3[nH]c(CNc4ccc5ccccc5n4)cc(=O)n3n2)cc1 [Example 4e, 2-(4-(tert-butyl)phenyl)-5-((quinolin-2-ylamino)methyl)-[1,2,4]triazolo[1,5-a]pyrimidin-7(4H)-one]	92.5	blocked tube formation	buildup of PPIX in HRECs (FECH in HRECs): induced a buildup of PPIX
	CC(C)(C)c1ccc(-c2nc3[nH]c(CNc4cccc(Cl)c4)cc(=O)n3n2)cc1 [Example 4h, 2-(4-(tert-butyl)phenyl)-5-(((3-chlorophenyl)amino)methyl)-[1,2,4]triazolo[1,5-a]pyrimidin-7(4H)-one]	> 100	blocked tube formation	
92000	CCCc1cc(=O)n2nc(CNc3ccccc3C)nc2[nH]1 [Example 5a, 5-propyl-2-((o-tolylamino)methyl)-[1,2,4]triazolo[1,5-a]pyrimidin-7(4H)-one]	75.5	blocked tube formation	
293	CCCc1cc(=O)n2nc(CNc3ccc(C)cc3)nc2[nH]1 [Example 5c, 5-propyl-2-((p-tolylamino)methyl)-[1,2,4]triazolo[1,5-a]pyrimidin-7(4H)-one]	28.3	blocked tube formation	
> 100000	CCCc1cc(=O)n2nc(CNc3ccccc3Cl)nc2[nH]1 [Example 5d, 2-(((2-chlorophenyl)amino)methyl)-5-propyl-[1,2,4]triazolo[1,5-a]pyrimidin-7(4H)-one]	25.7	blocked tube formation	
> 100000	CCCc1cc(=O)n2nc(CNc3ccc(C(C)(C)C)cc3)nc2[nH]1 [Example 5h, 2-(((4-(tert-butyl)phenyl)amino)methyl)-5-propyl-[1,2,4]triazolo[1,5-a]pyrimidin-7(4H)-one]	3.8	blocked tube formation	
61.4	COc1ccc(NCc2nc3[nH]c(C)c(Cc4ccc(Cl)cc4)c(=O)n3n2)cc1 [Example D433-1582]	> 100		
1250	CCc1ccccc1NCc1nc2[nH]c(C)c(Cc3ccc(Cl)cc3)c(=O)n2n1 [Example D433-1585]	74.6		
2990	CCOC(=O)CCc1c(C)[nH]c2nc(CNc3ccc(C)c(Cl)c3)nn2c1=O [Example D433-1688]	> 100		
4390	CCCc1cc(=O)n2nc(CNc3cccc(C(F)(F)F)c3)nc2[nH]1 [Example D433-1725]	1.17		
829	CCCc1cc(=O)n2nc(CNc3ccc(Cl)cc3)nc2[nH]1 [Example D433-1739]			GI50 (HRECs [1]; 44 hours): 3.14 µM
2860	CCCc1cc(=O)n2nc(CNc3cccc(OC)c3)nc2[nH]1 [Example D433-1741]	1.61		
570	CCCc1cc(=O)n2nc(CNc3ccc(C)c(Cl)c3)nc2[nH]1 [Example D433-1748]	> 100		
2150	CCCc1cc(=O)n2nc(CNc3cccc(Cl)c3C)nc2[nH]1 [Example D433-1750]	> 100		
1020	Cc1ccc(NCc2nc3[nH]c(C(C)C)cc(=O)n3n2)cc1Cl [Example D433-1798]	> 100		
1570	O=c1c2c([nH]c3nc(CNc4cccc(Cl)c4)nn13)CCC2 [Example D433-1831]	> 100		
1050	O=c1c2c([nH]c3nc(CNc4ccc(Cl)cc4)nn13)CCC2 [Example D433-1839]	81.5		
3750	COc1cccc(NCc2nc3[nH]c4c(c(=O)n3n2)CCC4)c1 [Example D433-1841]	> 100		
227	Cc1ccc(NCc2nc3[nH]c4c(c(=O)n3n2)CCC4)cc1Cl [Example D433-1848]	> 100		
	N-methylprotoporphyrin [NMPP, reference compound]			FECH activity inhibition (recombinant human FECH; 10 μM): completely inhibited; IC50 (recombinant human FECH; positive control, in our assay, read-out: IC50 (FECH inhibition)): 450 nM; buildup of PPIX in HRECs (FECH in HRECs): induced a buildup of PPIX
